Measured values as given in ChEMBL document CHEMBL1153395, “Development of a novel virtual screening cascade protocol to identify potential trypanothione reductase inhibitors” (J Med Chem, 2009).

Columns and labels:
Trypanothione reductase [1] = biological target: Trypanothione reductase (Trypanosoma brucei brucei, UniProt P39051); test: Inhibition of Trypanosoma brucei Trypanothione reductase
Trypanothione reductase [2] = biological target: Trypanothione reductase (Trypanosoma cruzi, UniProt P28593); test: Inhibition of Trypanosoma cruzi Trypanothione reductase
Trypanothione reductase (Trypanosoma cruzi, UniProt P28593), sequence (P28593 whole entry): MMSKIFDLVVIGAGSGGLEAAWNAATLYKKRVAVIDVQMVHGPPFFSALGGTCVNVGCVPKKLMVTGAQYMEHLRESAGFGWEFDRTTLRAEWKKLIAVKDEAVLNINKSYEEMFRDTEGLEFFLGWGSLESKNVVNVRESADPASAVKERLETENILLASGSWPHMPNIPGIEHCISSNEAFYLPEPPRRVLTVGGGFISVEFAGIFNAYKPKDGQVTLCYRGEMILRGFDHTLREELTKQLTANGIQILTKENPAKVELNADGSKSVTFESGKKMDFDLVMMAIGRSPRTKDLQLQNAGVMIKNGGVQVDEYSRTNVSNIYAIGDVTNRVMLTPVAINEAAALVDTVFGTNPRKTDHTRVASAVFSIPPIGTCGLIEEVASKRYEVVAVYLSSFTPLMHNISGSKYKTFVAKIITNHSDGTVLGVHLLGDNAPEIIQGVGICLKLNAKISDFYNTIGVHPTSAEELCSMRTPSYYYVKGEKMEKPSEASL

Trypanothione reductase (Trypanosoma brucei brucei, UniProt P39051), sequence (P39051 whole entry): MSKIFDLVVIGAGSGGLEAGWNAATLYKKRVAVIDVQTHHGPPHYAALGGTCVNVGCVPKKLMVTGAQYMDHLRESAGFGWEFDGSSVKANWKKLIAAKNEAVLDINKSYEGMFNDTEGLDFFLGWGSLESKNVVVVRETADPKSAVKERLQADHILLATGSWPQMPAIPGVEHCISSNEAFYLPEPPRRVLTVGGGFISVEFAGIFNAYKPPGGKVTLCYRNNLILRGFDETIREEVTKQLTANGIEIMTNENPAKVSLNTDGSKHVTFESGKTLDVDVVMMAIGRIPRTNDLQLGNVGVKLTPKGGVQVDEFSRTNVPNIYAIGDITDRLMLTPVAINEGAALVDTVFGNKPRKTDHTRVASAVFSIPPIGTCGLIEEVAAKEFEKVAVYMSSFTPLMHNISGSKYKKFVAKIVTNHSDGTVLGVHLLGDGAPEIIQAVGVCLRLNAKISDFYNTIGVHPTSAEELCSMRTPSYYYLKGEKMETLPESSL

With `CC(NS(=O)(=O)c1ccccc1)C(=O)Nc1ccccc1Sc1ccccc1` (configuration not stated) the IC50 (Trypanothione reductase [1]) was > 100 µM and the IC50 (Trypanothione reductase [2]) was > 100 µM.
For `NCCCCC(N)C(=O)Nc1ccc2ccccc2c1` (configuration not stated), the IC50 (Trypanothione reductase [1]) was > 100 µM and the IC50 (Trypanothione reductase [2]) was > 100 µM.
`O=C(CN1C(=O)C2CC=CCC2C1=O)Nc1ccccc1Sc1ccc(Cl)cc1` (configuration not stated) was tested, and the IC50 (Trypanothione reductase [1]) was > 100 µM and the IC50 (Trypanothione reductase [2]) was > 100 µM.
`CN(C)CCCC1Sc2ccccc2Sc2ccccc21` (configuration not stated) was tested, and the IC50 (Trypanothione reductase [1]) was 37.3 µM and the IC50 (Trypanothione reductase [2]) was 36.7 µM.
In the case of `CN1CCN(C2=NC(=O)CC(C(=O)Nc3cccc(Cl)c3)N2)CC1` (configuration not stated), the IC50 (Trypanothione reductase [1]) is reported as > 100 µM and the IC50 (Trypanothione reductase [2]) is reported as > 100 µM.
In the case of `CC12CN3CC(C)(C1)C[N+](Cc1cccc(Br)c1)(C3)C2`, the IC50 (Trypanothione reductase [1]) is reported as > 100 µM and the IC50 (Trypanothione reductase [2]) is reported as > 100 µM.
With `C[N+]1(C)CCCC2c3ccccc3Sc3ccc(Cl)cc3C21` (configuration not stated) the IC50 (Trypanothione reductase [1]) was 58.7 µM and the IC50 (Trypanothione reductase [2]) was 75.3 µM.
In the case of `Cc1ccc(N2CC(C(=O)Nc3ccccc3Sc3ccccc3)CC2=O)cc1` (configuration not stated), the IC50 (Trypanothione reductase [1]) is reported as > 100 µM and the IC50 (Trypanothione reductase [2]) is reported as > 100 µM.
In the case of `O=C(CN1CCCCCC1)N1c2ccccc2Sc2ccc(Cl)cc21`, the IC50 (Trypanothione reductase [1]) is reported as > 100 µM and the IC50 (Trypanothione reductase [2]) is reported as 78.7 µM.
`c1ccc2c(c1)Sc1ccccc1N2CC1CN2CCC1CC2` (configuration not stated) [MEQUITAZINE] gave an IC50 (Trypanothione reductase [1]) of 54.3 µM and an IC50 (Trypanothione reductase [2]) of 21.8 µM.
`C[N+]1(Cc2ccccc2)CCC(/N=C/C2C(=O)NC(=O)N(C3CCCCC3)C2=O)CC1` (configuration not stated) was tested, and the IC50 (Trypanothione reductase [1]) was > 100 µM and the IC50 (Trypanothione reductase [2]) was 45.2 µM.
For `CC1CCCCC12NC(=O)N(CC(=O)Nc1ccccc1Sc1ccccc1)C2=O` (configuration not stated), the IC50 (Trypanothione reductase [1]) was > 100 µM.
`CN1CCCC(CC2Oc3ccccc3Sc3ccccc32)C1` (configuration not stated) showed an IC50 (Trypanothione reductase [1]) of 14.6 µM and an IC50 (Trypanothione reductase [2]) of 11.5 µM.
`CCN1CCN(C2Cc3ccccc3Sc3ccc(Cl)cc32)CC1` (configuration not stated) gave an IC50 (Trypanothione reductase [1]) of 36 µM and an IC50 (Trypanothione reductase [2]) of 29.1 µM.
With `NC(=O)C1(N2CCCCC2)CCN(CC(=O)Nc2ccccc2Sc2ccccc2)CC1` the IC50 (Trypanothione reductase [1]) was > 100 µM and the IC50 (Trypanothione reductase [2]) was > 100 µM.
In the case of `O=C(CN1CCN(c2ccccc2)CC1)Nc1ccccc1Sc1ccccc1`, the IC50 (Trypanothione reductase [1]) is reported as > 100 µM and the IC50 (Trypanothione reductase [2]) is reported as > 100 µM.
For `O=C(CCN1CCN2CCCCC2C1)N1c2ccccc2Sc2ccc(Cl)cc21` (configuration not stated), the IC50 (Trypanothione reductase [1]) was 31.9 µM and the IC50 (Trypanothione reductase [2]) was 35.4 µM.
With `O=C(CN1C(=O)NC2(CCCCCC2)C1=O)Nc1ccccc1Sc1ccccc1` the IC50 (Trypanothione reductase [1]) was > 100 µM and the IC50 (Trypanothione reductase [2]) was > 100 µM.
`CN(CC(=O)Nc1ccccc1Sc1ccccc1)C1CCCCC1` showed an IC50 (Trypanothione reductase [1]) of 46.9 µM and an IC50 (Trypanothione reductase [2]) of 56.3 µM.
